Source: patent publication US20240400986A1, “MEMBRANE BOUND COMPOSITIONS AND METHODS RELATING TO SAME” (FLAGSHIP PIONEERING INNOVATIONS VII, LLC, priority 2021, published 2024)
Read-outs that look alike come from different tables or passages of the source.

Legend:
[1] = tested on: cardiomyocytic cell line derived from human ventricular heart tissue; experiment: Small molecule compound screen of gigasome production in cardiomyocytic monocultures; settings: cardiomyocytes;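 also: gigasomes shed into the culture medium were imaged by confocal microscopy and counted as round particles lacking nuclear signal, extrapolated to the whole well, fold change is relative to DMSO vehicle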
Protocol: For the screening, a total of 100 randomly organized compounds (TargetMol) were divided in 5 groups. Each group included an untreated condition, a vehicular DMSO control, and a known high-gigasome producing condition to comparatively study gigasome production rates. As a cell death control group, 500 nM Staurosporine was added to induce apoptosis. Cultures were incubated for 24 hours under gigasome inducing conditions at concentrations ranging between 10 nM and 10,000 nM. […] The Zeiss ZEN Blue software was used to distribute imaging fields of view (positions) to create an unbiased imaging sample of a well. 5 images were taken using a Zeiss LSM 900 confocal microscope. […] The BioApps ZEN software package was used to perform cell nucleus segmentation and counting. After 24 hours, gigasomes were harvested from the cell culture media by gently removing from the top of each 96-well ⅔ of the total volume without disturbing the cell layer (containing the settled gigasomes) and by adding to each well the same amount of PBS containing 0.5 mM EDTA. The wells were washed twice gently, and the gigasome-containing media/0.5 mM EDTA PBS wash was transferred into the well of a 384-well glass bottom plate. Cells remaining in the 96-well plates were assessed for viability using CellTiter-Glo (Promega).
For gigasome analysis in 384-well plates, the Zeiss ZEN Blue software was used to distribute positions to create an unbiased imaging sample of a well. 6 images per well were taken using a Zeiss LSM 900 confocal microscope. […] A watershed binary segmentation step was performed to separate grouped objects. For each particle in the mask, characteristic parameters of the particle were calculated and saved. […] Particles of interest were identified by thresholding by area and circularity. […] Circularity, defined by the formula 4pi(area/perimeter^2, was set to be between 0.8, where a value of 1.0 is a perfect circle, and a value of 0 is a line. Gigasomes were identified from the particles of interest by thresholding by mean nuclear signal. The nuclear signal threshold was set using a value equal to one quarter of a threshold value calculated by the Li auto-threshold algorithm applied to the distribution of all particles of interest. Particles of interest with nuclear signal below this value were considered “negative” for nuclear material and were identified as gigasomes. A sampling factor was calculated to extrapolate the total quantity of a type of object (particles, particles of interest, gigasomes) in the well. The sampling factor was the percentage of the well's area that was imaged. […] In some experiments, the number of cells in the cell cultures were estimated with a cell counter. […] The normalized quantity or distribution of objects was described as a quantity or distribution of objects per 1000 cells.

[2] = tested on: neuronal cell line derived from human neuroblastoma
Protocol: For the screening, a total of 99 compounds (TargetMol) were divided in 5 groups. Each group included an untreated condition, a vehicular DMSO control, and a known high-gigasome producing condition to comparatively study gigasome production rates. As a cell death control group, 500 nM Staurosporine was added to induce apoptosis. Cultures were incubated for 24 hours under gigasome inducing conditions at concentrations ranging between 10 nM and 10,000 nM. Before the end of the treatment, live neuronal cultures were imaged. The Zeiss ZEN Blue software was used to distribute imaging fields of view (positions) to create an unbiased imaging sample of a well. 5 images were taken using a Zeiss LSM 900 confocal microscope. […] The BioApps ZEN software package was used to perform cell nucleus segmentation and counting. After 24 hours, gigasomes were harvested from the cell culture media by gently removing from the top of each 96-well ⅔ of the total volume without disturbing the cell layer (containing the settled gigasomes) and by adding to each well the same amount of PBS. […] Cells remaining in the 96-well plates were assessed for viability using CellTiter-Glo (Promega).

[3] = tested on: neuronal cell line derived from human neuroblastoma; experiment: Small molecule compound screen of gigasome production in neuronal monocultures; settings: for Fold Change of Gigasomes Produced vs. DMSO / Number of Gigasomes Produced / downregulation of gigasome production: neuronal cells; for Fold Change of Gigasomes Produced vs. DMSO / Number of Gigasomes Produced: 24 hours; for fold induction at 0.01 µM / fold induction at 0.1 µM / fold induction at 1 µM / fold induction at 10 µM: Homo sapiens, read-out: Fold Change of Gigasomes Produced vs. DMSO; for fold induction at 0.01 µM / fold induction at 0.1 µM / fold induction at 1 µM / fold induction at 10 µM / downregulation of gigasome production: 24 h; for downregulation of gigasome production: doses 10-10,000 nM
[4] = Table 23 (down-regulators), dose 10 nM
[5] = Table 23 (down-regulators), dose 100 nM
[6] = Table 23 (down-regulators), dose 1000 nM
[7] = Table 23 (down-regulators), dose 10000 nM
[8] = neuronal cells, dose 10000 nM, 24 hours
[9] = Table 22, dose 1000 nM, 24 hours
[10] = Table 22, dose 10000 nM, 24 hours
[11] = neuronal cells, dose 10 nM, 24 hours
[12] = neuronal cells, dose 100 nM, 24 hours
[13] = neuronal cells, dose 1000 nM, 24 hours

Structure (SMILES)	Viability [2, 8] [%]	Fold Change of Gigasomes Produced vs. DMSO ([3]; dose 10000 nM)	Number of Gigasomes Produced ([3]; dose 10000 nM)	Fold Change of Gigasomes Produced vs. DMSO ([3]; dose 10 nM)	Number of Gigasomes Produced ([3]; dose 10 nM)	Fold Change of Gigasomes Produced vs. DMSO ([3]; dose 100 nM)	Number of Gigasomes Produced ([3]; dose 100 nM)	Fold Change of Gigasomes Produced vs. DMSO ([3]; dose 1000 nM)	Number of Gigasomes Produced ([3]; dose 1000 nM)	Viability [2, 11] [%]	Viability [2, 12] [%]	Viability [2, 13] [%]	further results
O=C(Oc1cccc(F)c1OC(=O)c1cccc(O)c1)c1cccc(O)c1 [WZB117, reference compound]	–	–	–	–	–	–	–	–	–	–	–	–	Fold Change of Gigasomes Produced vs. DMSO [1, 4]: 1.0-1.25; Number of Gigasomes Produced [1, 4]: 120-135; Fold Change of Gigasomes Produced vs. DMSO [1, 5]: 0.75-1.0; Number of Gigasomes Produced [1, 5]: 105-120; Fold Change of Gigasomes Produced vs. DMSO [1, 6]: 0.75-1.0; Number of Gigasomes Produced [1, 6]: 105-120; Fold Change of Gigasomes Produced vs. DMSO [1, 7]: 0.25-0.5; Number of Gigasomes Produced [1, 7]: 35-50; downregulation of gigasome production ([1]; doses 10-10,000 nM, 24 h): dose-dependent downregulation
CCCCCCCCCCCCCC[N+](C)(C)C.[Br-] [MiTMAB, reference compound]	>75	2.0-3.0	55-65	–	–	–	–	–	–	–	–	–	–
COC(=O)C1=C(C)NC(C)=C([N+](=O)[O-])C1c1ccccc1C(F)(F)F (stereo not drawn) [Bay K 8644]	–	–	–	1.25-1.5	35-45	1.25-1.5	35-45	1.25-1.5	35-45	–	–	–	Fold Change of Gigasomes Produced vs. DMSO [1, 4]: 0.75-1.0; Number of Gigasomes Produced [1, 4]: >150; Fold Change of Gigasomes Produced vs. DMSO [1, 5]: 0.5-0.75; Number of Gigasomes Produced [1, 5]: 120-135; Fold Change of Gigasomes Produced vs. DMSO [1, 6]: 0.75-1.0; Number of Gigasomes Produced [1, 6]: 105-120; Fold Change of Gigasomes Produced vs. DMSO [1, 7]: 0.25-0.5; Number of Gigasomes Produced [1, 7]: 75-90
COc1ccc(S(=O)(=O)N(CCO)c2ccccc2CN(C)C/C=C/c2ccc(Cl)cc2)cc1 [KN-93, reference compound]	–	–	–	–	–	–	–	–	–	–	–	–	Fold Change of Gigasomes Produced vs. DMSO ([1]; Table 22, dose 10 nM, 24 hours): 1.25-1.5; Number of Gigasomes Produced ([1]; Table 22, dose 10 nM, 24 hours): 225-250; Fold Change of Gigasomes Produced vs. DMSO [1, 9]: 1.25-1.5; Number of Gigasomes Produced [1, 9]: 250-275; Fold Change of Gigasomes Produced vs. DMSO [1, 10]: 1.5-1.75; Number of Gigasomes Produced [1, 10]: 250-275
CCN(CCO)CCCC(C)Nc1ccnc2cc(Cl)ccc12 (stereo not drawn) [Hydroxychloroquine]	>75	–	20-25	–	30-35	–	20-25	–	25-30	100	100	>75	fold induction at 0.01 µM [3]: 1 to 1.25; fold induction at 0.1 µM [3]: 0.75 to 1; fold induction at 1 µM [3]: 0.75 to 1; fold induction at 10 µM [3]: 0.75 to 1
CC1=NS(=O)(=O)c2cc(Cl)ccc2N1 [Diazoxide]	–	–	35-45	–	–	–	45-55	–	35-45	–	–	–	Viability ([2]; human, 24 h, 100 nM): 100%; Viability ([2]; human, 24 h, 1000 nM): 100%; Viability ([2]; human, 24 h, 10000 nM): 100%; fold induction at 0.1 µM [3]: 1.5 to 1.75; fold induction at 1 µM [3]: 1.25 to 1.5; fold induction at 10 µM [3]: 1 to 1.25
CCCn1cnc2c(NCc3ccc(C)s3)nc(N[C@H](CC)CO)nc21 [GV-58, reference compound]	>75	0.25-0.5	10-15	0.75-1.0	25-30	0.75-1.0	20-25	0.75-1.0	20-25	100	100	100	downregulation of gigasome production [3]: dose-dependent downregulation
CN[C@H](CC(=O)O)C(=O)O [NMDA, reference compound]	100	0.25-0.5	15-20	0.75-1.0	30-35	0.75-1.0	30-35	0.5-0.75	20-25	100	100	100	downregulation of gigasome production [3]: dose-dependent downregulation
CCCCc1ccc(NC(C)=O)c(C)c1 [SMIP004]	–	0.75-1.0	30-35	>1.25	>40	0.75-1.0	35-40	0.75-1.0	30-35	–	–	–	Fold Change of Gigasomes Produced vs. DMSO [1, 9]: 1.0-1.25; Number of Gigasomes Produced [1, 9]: 150-175; Fold Change of Gigasomes Produced vs. DMSO [1, 10]: 1.25-1.5; Number of Gigasomes Produced [1, 10]: 175-200
O=C(/C=C/c1ccc(/C=C/C(=O)Nc2ccc(C3=NCCN3)cc2)cc1)Nc1ccc(C2=NCCN2)cc1 [GW4869, reference compound]	–	0.25-0.5	5-10	–	30-35	0.75-1.0	35-40	0.25-0.5	15-20	–	–	–	downregulation of gigasome production [3]: dose-dependent downregulation
CC[C@H](CO)Nc1nc(NCc2ccccc2)c2ncn(C(C)C)c2n1 [Seliciclib]	100	–	15-20	–	25-30	–	25-30	–	25-30	100	100	100	fold induction at 0.01 µM [3]: 0.75 to 1; fold induction at 0.1 µM [3]: 0.75 to 1; fold induction at 1 µM [3]: 0.75 to 1; fold induction at 10 µM [3]: 0.5 to 0.75
